According to the NIST ThermoML archive (doi:10.1021/acs.jced.8b00975):

Test: xn = mol fraction of the nth substance listed
Conditions: Liquid, Vibrating tube method

C=C(C)C(=O)OCCN(C)C [2-(dimethylamino)ethyl methylpropenoate] + CCCO
mass density [kg/m3]
Conditions	100 kPa	5000 kPa	10000 kPa	15000 kPa	20000 kPa	25000 kPa	30000 kPa	35000 kPa
293.15 K, x1 = 0.03	813.1	817.13	820.85	824.33	827.64	830.83	833.97	837.12
293.15 K, x1 = 0.0598	822.05	825.95	829.65	833.15	836.5	839.72	842.82	845.84
293.15 K, x1 = 0.0998	832.86	836.81	840.49	843.94	847.22	850.38	853.46	856.5
293.15 K, x1 = 0.1502	845.14	849.07	852.65	856.05	859.3	862.47	865.58	868.68
293.15 K, x1 = 0.2003	855.86	859.68	863.26	866.65	869.89	873.06	876.18	879.33
293.15 K, x1 = 0.2502	865.17	868.95	872.5	875.88	879.12	882.27	885.37	888.47
293.15 K, x1 = 0.3013	873.68	877.48	881.04	884.41	887.65	890.79	893.88	896.98
293.15 K, x1 = 0.3992	887.54	891.31	894.85	898.21	901.43	904.58	907.69	910.81
293.15 K, x1 = 0.4482	893.36	897.13	900.67	904.04	907.28	910.43	913.53	916.64
293.15 K, x1 = 0.4998	898.97	902.77	906.35	909.73	912.96	916.08	919.13	922.15
293.15 K, x1 = 0.5509	903.96	907.77	911.33	914.67	917.88	921	924.1	927.23
293.15 K, x1 = 0.5986	908.27	912.04	915.56	918.89	922.08	925.2	928.3	931.47
293.15 K, x1 = 0.699	916.1	919.83	923.35	926.69	929.91	933.05	936.14	939.24
293.15 K, x1 = 0.7994	922.7	926.51	930.05	933.38	936.55	939.65	942.73	945.86
293.15 K, x1 = 0.8519	925.73	929.5	933.03	936.39	939.61	942.75	945.87	949.02
293.15 K, x1 = 0.8992	928.25	931.98	935.56	938.89	942.14	945.3	948.43	951.54
293.15 K, x1 = 0.9284	929.69	933.42	936.97	940.36	943.63	946.83	949.98	953.12
293.15 K, x1 = 0.9587	931.16	934.9	938.45	941.84	945.11	948.29	951.43	954.55
303.15 K, x1 = 0.0307	805.44	809.69	813.63	817.3	820.75	824.03	827.2	830.29
303.15 K, x1 = 0.0599	813.96	818.16	822.06	825.7	829.13	832.41	835.6	838.73
303.15 K, x1 = 0.1003	824.72	828.9	832.79	836.41	839.84	843.1	846.24	849.31
303.15 K, x1 = 0.201	847.03	851.16	854.99	858.56	861.95	865.23	868.44	871.66
303.15 K, x1 = 0.3004	864.34	868.29	872.06	875.68	879.16	882.5	885.74	888.87
303.15 K, x1 = 0.4007	878.29	882.23	885.98	889.57	893.03	896.41	899.73	903.03
303.15 K, x1 = 0.4507	884.12	888.05	891.79	895.39	898.86	902.25	905.59	908.92
303.15 K, x1 = 0.4985	889.33	893.25	896.99	900.58	904.06	907.45	910.79	914.12
303.15 K, x1 = 0.5535	894.64	898.56	902.3	905.89	909.38	912.79	916.16	919.52
303.15 K, x1 = 0.5907	897.88	901.87	905.63	909.22	912.68	916.07	919.43	922.81
303.15 K, x1 = 0.7009	906.35	910.27	914.01	917.6	921.09	924.52	927.94	931.39
303.15 K, x1 = 0.8	912.95	916.83	920.56	924.17	927.7	931.16	934.59	938.01
303.15 K, x1 = 0.9043	918.6	922.52	926.3	929.96	933.53	937.03	940.48	943.91
303.15 K, x1 = 0.9269	919.6	923.57	927.36	931	934.55	938.03	941.51	945.01
303.15 K, x1 = 0.9551	921.07	924.99	928.75	932.41	935.97	939.47	942.94	946.41
313.15 K, x1 = 0.0303	797.13	801.51	805.58	809.4	813.02	816.51	819.93	823.33
313.15 K, x1 = 0.0602	805.6	809.95	814.02	817.86	821.5	825	828.39	831.72
313.15 K, x1 = 0.1007	816.21	820.42	824.41	828.2	831.83	835.35	838.78	842.17
313.15 K, x1 = 0.2003	838.07	842.22	846.16	849.93	853.55	857.04	860.44	863.76
313.15 K, x1 = 0.2989	854.98	859.16	863.14	866.94	870.58	874.08	877.48	880.8
313.15 K, x1 = 0.4005	869.05	873.2	877.16	880.94	884.58	888.1	891.52	894.87
313.15 K, x1 = 0.4513	875.07	879.17	883.11	886.91	890.57	894.1	897.51	900.82
313.15 K, x1 = 0.5026	880.52	884.58	888.5	892.29	895.96	899.51	902.95	906.3
313.15 K, x1 = 0.5521	885.29	889.39	893.33	897.12	900.78	904.32	907.74	911.06
313.15 K, x1 = 0.6025	889.7	893.77	897.71	901.52	905.22	908.79	912.25	915.59
313.15 K, x1 = 0.6976	897.07	901.19	905.15	908.97	912.65	916.22	919.67	923.02
313.15 K, x1 = 0.8037	903.96	908.07	912.04	915.87	919.56	923.14	926.61	929.99
313.15 K, x1 = 0.9043	909.46	913.62	917.61	921.46	925.17	928.79	932.32	935.78
313.15 K, x1 = 0.933	910.82	914.96	918.95	922.81	926.56	930.22	933.79	937.29
313.15 K, x1 = 0.9605	912.22	916.36	920.35	924.21	927.96	931.63	935.23	938.78
